Article PMC8428568, “Discovery of re-purposed drugs that slow SARS-CoV-2 replication in human cells” (PLoS Pathogens, 2021)
Structures can show the parent of a compound that is named as a salt. Where two headings read alike, the source gives them in different places.

Assays:
[1] = system: SARS-CoV-2-ΔOrf7a-NLuc virus; experiment: microbe, parasite or virus in culture; assay type: cell-based; conditions: for activity at 10 µM: Severe acute respiratory syndrome coronavirus 2, Vero, 72 h, read-out: Mean relative luminescence (n=4)
[2] = system: SARS-CoV-2-ΔOrf7a-NLuc virus; experiment: microbe, parasite or virus in culture; assay type: cell-based
[3] = system: SARS-CoV-2-ΔOrf7a-NLuc virus; experiment: Post-infection treatment: Vero cells infected 24 hrs with SARS-CoV-2-ΔOrf7a-NLuc, then compound for 48 hrs, bioluminescence; assay type: cell-based; conditions: change in replication relative to DMSO; cells infected 24 hrs, then treated 48 hrs
[4] = system: recombinant NLuc; assay type: biochemical
[5] = system: Vero cells
[6] = system: HUH7 cells
[7] = […], 1 = untreated, 0 = total inhibition
[8] = recombinant NLuc activity relative to DMSO
[9] = recombinant NLuc, first read column
[10] = recombinant NLuc, fourth read column
[11] = recombinant NLuc, third read column
[12] = Vero cells, 10 μM, 1 = DMSO-treated infected cells
[13] = Vero screen, […], relative luminescence
[14] = HUH7 screen, […], relative luminescence

| SMILES | % activity in Vero 100PFU screen [1] [%] | activity at 10 µM [1, 7] [%] | Relative Recombinant NLUC [4, 8] | Reads Counts per second (read 1) [4, 9] [Counts per second] | Reads Counts per second (read 4) [4, 10] [Counts per second] | Reads Counts per second (read 3) [4, 11] [Counts per second] | PrestoBlue relative viability [5, 12] | Mean relative luminescence (n=4) [1, 13] | Mean relative luminescence (n=4) [2, 14] | PrestoBlue relative viability ([5]; Vero screen) | PrestoBlue relative viability ([6]; HUH7 screen) | other results |
| --- | --- | --- | --- | --- | --- | --- | --- | --- | --- | --- | --- | --- |
| COc1nc2ccc(Br)cc2cc1[C@@H](c1ccccc1)[C@@](O)(CCN(C)C)c1cccc2ccccc12 [Bedaquiline] | 3.54 | 1.02 | 0.9285 | 348601 | 351646 | 347079 | 0.8784 | – | – | – | – | IC50 ([1]; Severe acute respiratory syndrome coronavirus 2, Vero cells): 10 µM; IC50 ([2]; Severe acute respiratory syndrome coronavirus 2, Huh-7, read-out: HUH7 IC50): 5 µM; Post-infection at IC50 [3]: -30%; Reads Counts per second (read 2) ([4]; recombinant NLuc): 355872 Counts per second |
| Cl.Cl.Cl.O[C@@H](COc1cccc2ncccc12)CN1CCN([C@@H]2c3ccccc3[C@@H]3[C@H](c4ccccc42)C3(F)F)CC1 [LY335979 (Zosuquidar 3HCL), Zosuquidar 3HCL] | 3 | – | 0.9362 | 352212 | 351420 | 356783 | 0.5866 | 0.008621 | 0.08231 | 0.5866 | 0.6203 | Mean relative luminescence (n=4) [1, 7]: 0.008621 |
| CCCCc1oc2ccccc2c1C(=O)c1cc(I)c(OCCN(CC)CC)c(I)c1 [Amiodarone HCl] | – | 3.18 | 0.9671 | 364410 | 366409 | 365644 | 0.8378 | 0.03182 | 0.03404 | 0.8378 | 0.9633 | Reads Counts per second (read 2) ([4]; recombinant NLuc): 365102 Counts per second |
| CNCC[C@H](Oc1cccc2ccccc12)c1cccs1 [Duloxetine HCl] | 12 | – | – | – | – | – | – | – | – | – | – | activity at 10 µM [1]: 9.8%; Mean relative luminescence (n=4) [2]: 0.02845; Reads Counts per second (read 1) [4]: 297459 Counts per second; Reads Counts per second (read 3) [4]: 293652 Counts per second; Reads Counts per second (read 4) [4]: 301826 Counts per second; Relative Recombinant NLUC [4]: 0.7894; PrestoBlue relative viability ([5]; African green monkey): 0.9914; PrestoBlue relative viability ([6]; human): 0.5048 |
| O=C(/C=C\n1cnc(-c2cc(C(F)(F)F)cc(C(F)(F)F)c2)n1)NNc1cnccn1 [KPT-330] | 3.73 | 0.545 | 1.022 | 378225 | 381493 | 389989 | 0.581 | 0.005454 | 0.05859 | 0.581 | 0.7102 | – |
| CCOC(=O)C1=C(C)NC(C)=C(C(=O)OC)C1c1cccc([N+](=O)[O-])c1 (centres unmarked) [Nitrendipine] | 8.56 | 7.21 | 0.06915 | 26271 | 26141 | 26096 | 0.8649 | 0.07211 | 0.0007292 | 0.8649 | 0.6545 | – |
| Cc1cc(C2CCCCC2)n(O)c(=O)c1.NCCO [Ciclopirox ethanolamine] | 7 | – | 0.961 | 358391 | 361119 | 365653 | 0.5173 | 0.05436 | 0.04601 | 0.5173 | 0.5023 | Mean relative luminescence (n=4) [1, 7]: 0.05436 |
| COCCOC(=O)C1=C(C)NC(C)=C(C(=O)OC/C=C/c2ccccc2)C1c1cccc([N+](=O)[O-])c1 (centres unmarked) [Cilnidipine] | 0.696 | 0.039 | 0.07521 | 28828 | 27971 | 28106 | 0.8017 | 0.0003902 | 0.00182 | 0.8017 | 0.797 | – |
| COc1cc2nccc(Oc3ccc(NC(=O)C4(C(=O)Nc5ccc(F)cc5)CC4)cc3)c2cc1OC [Cabozantinib malate (XL184), Cabozantinib malate] | 12 | 10.3 | 0.8679 | 333265 | 328687 | 329153 | 0.5119 | 0.1026 | 0.03412 | 0.5119 | 0.8011 | – |
| OCCOc1ccc(/C(=C(/CCCl)c2ccccc2)c2ccccc2)cc1 [Ospemifene] | 4 | – | – | – | – | – | – | – | – | – | – | activity at 10 µM [1]: 1.57%; Mean relative luminescence (n=4) [2]: 0.1449; Reads Counts per second (read 1) [4]: 356755 Counts per second; Reads Counts per second (read 3) [4]: 358779 Counts per second; Reads Counts per second (read 4) [4]: 352991 Counts per second; Relative Recombinant NLUC [4]: 0.9407; PrestoBlue relative viability ([5]; African green monkey): 0.6863; PrestoBlue relative viability ([6]; human): 1.203 |
| COC(=O)C1=C(C)NC(C)=C(C(=O)OC(C)C)C1c1cccc2nonc12 (centres unmarked) [Isradipine (Dynacirc), Isradipine] | 6 | 3.92 | 0.04959 | 19176 | 18431 | 18561 | 0.6155 | 0.03922 | 0.001355 | 0.6155 | 0.6762 | – |
| CC(C)n1c(/C=C/C(O)CC(O)CC(=O)O)c(-c2ccc(F)cc2)c2ccccc21 (centres unmarked) [Fluvastatin Sodium] | 6 | 5.01 | 0.8994 | 344916 | 335899 | 339204 | 0.5553 | 0.05005 | 0.05448 | 0.5553 | 1.3017 | – |
